Laboratory results reported in US12187709B2 (Genentech, Inc., priority 2021, dated 2025).

Key:
Cbl-b = Cbl-b (Homo sapiens (Human), UniProt Q13191); assay: Cbl-b LCK Ub TR-FRET assay (Cbl-b Lck HTRF); format: biochemical; conditions: for IC50: Cbl-b LCK Ub TR-FRET; for fold-selectivity (Cbl-b over C-cbl) / (fold-selectivity) Cbl-b and C-Cbl Selectivity: ratio C-cbl Lck HTRF IC50 / Cbl-b Lck HTRF IC50
Outline: (§1)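 Signal is read once the detection mix has stood 20 min at ambient temperature. Curves are anchored by DMSO as maximum and by omission of LCK as minimum.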

c-Cbl = c-Cbl (Homo sapiens (Human), UniProt P22681); assay: C-Cbl LCK Ub TR-FRET assay (C-cbl Lck HTRF); format: biochemical
Outline: as §1

[1] = target: Human Cbl-b (residues 40-426) (Homo sapiens (Human), UniProt Q13191); assay: Cbl-b SPR assay; format: binding; conditions: for Fold of selectivity: C-cbl SPR Kd vs Cbl-b SPR Kd; for Kd: SPR, 20° C.
Outline: (§2)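 Values derive from a 1:1 model fitted to multicycle kinetics on captured protein (1300-1500 RU), using six 2-fold concentrations, 60 s contact and dissociation of 120-1200 s. In the chaser format, kd comes from a single-exponential fit of % site occupancy over time.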

c-Cbl (residues 47-435) = c-Cbl (residues 47-435) (Homo sapiens (Human), UniProt P22681); assay: c-Cbl SPR assay; format: binding; conditions: 20° C.
Outline: as §2

Chain of Cbl-b (Q13191 40-426): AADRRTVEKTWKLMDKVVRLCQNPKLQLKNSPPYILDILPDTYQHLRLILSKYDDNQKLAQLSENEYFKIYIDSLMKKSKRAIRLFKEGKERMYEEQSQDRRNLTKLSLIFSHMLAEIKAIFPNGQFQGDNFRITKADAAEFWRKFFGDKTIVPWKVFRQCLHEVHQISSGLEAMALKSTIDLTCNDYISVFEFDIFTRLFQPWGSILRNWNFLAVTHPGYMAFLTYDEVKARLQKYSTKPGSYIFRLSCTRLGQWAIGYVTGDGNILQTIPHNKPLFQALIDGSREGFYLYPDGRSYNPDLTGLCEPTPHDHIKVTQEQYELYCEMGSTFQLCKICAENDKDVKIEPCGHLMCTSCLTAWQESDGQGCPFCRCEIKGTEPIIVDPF
Chain of Human Cbl-b (residues 40-426) (Q13191 40-426): as above
Chain of c-Cbl (residues 47-435) (P22681 47-435): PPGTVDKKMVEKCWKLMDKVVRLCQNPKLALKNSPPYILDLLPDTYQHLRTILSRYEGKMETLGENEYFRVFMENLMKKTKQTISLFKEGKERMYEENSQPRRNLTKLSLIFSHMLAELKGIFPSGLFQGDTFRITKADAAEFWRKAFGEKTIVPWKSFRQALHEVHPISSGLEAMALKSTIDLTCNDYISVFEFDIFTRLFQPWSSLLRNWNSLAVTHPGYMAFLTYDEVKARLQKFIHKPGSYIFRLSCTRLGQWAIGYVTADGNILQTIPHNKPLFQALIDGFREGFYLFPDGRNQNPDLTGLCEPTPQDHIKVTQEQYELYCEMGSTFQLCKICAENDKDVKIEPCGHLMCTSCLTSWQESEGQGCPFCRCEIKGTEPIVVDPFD
Chain of c-Cbl (P22681 47-435): as above

Row | Compound | IC50 (Cbl-b) [nM] | fold-selectivity (Cbl-b over C-cbl) (Cbl-b) | IC50 (c-Cbl) [nM] | Fold of selectivity [1] [×] | Kd [1] [nM] | Kd (c-Cbl (residues 47-435)) [nM] | IC50 (Cbl-b; Example 121) [nM] | (fold-selectivity) Cbl-b and C-Cbl Selectivity (Cbl-b) [x]
1 | Cn1cnnc1[C@]1(c2cccc(N3Cc4c(cc(CNC5(C)CCC5)cc4C(F)(F)F)C3=O)c2)C[C@@H](CO)C1.O=CO [Compound 100, 2-(3-((1r,3r)-3-(hydroxymethyl)-1-(4-methyl-4H-1,2,4-triazol-3-yl)cyclobutyl)phenyl)-6-(((1-methylcyclobutyl)amino)methyl)-4-(trifluoromethyl)isoindolin-1-one formate] | 25 | 3.5x | 86 | 12 | 5.8 | 72 |  | 
2 | Cn1cnnc1C(F)(c1cccc(N2Cc3c(cc(CNC4(C)CCC4)cc3C(F)(F)F)C2=O)c1)C1(F)COC1 (stereo in doubt) [Compound 403, (S)-2-(3-(fluoro(3-fluorooxetan-3-yl)(4-methyl-4H-1,2,4-triazol-3-yl)methyl)phenyl)-6-(((1-methylcyclobutyl)amino)methyl)-4-(trifluoromethyl)isoindolin-1-one] | 750 | 1.3x | 960 | 1.0 | 2500 | 2400 |  | 
3 | Cn1cnnc1[C@]1(c2cccc(N3Cc4c(cc(CNC5(C)CCC5)cc4C(F)(F)F)C3=O)c2)C[C@H](Cl)C1 [Compound 138, 2-(3-((1s,3s)-3-chloro-1-(4-methyl-4H-1,2,4-triazol-3-yl)cyclobutyl)phenyl)-6-(((1-methylcyclobutyl)amino)methyl)-4-(trifluoromethyl)isoindolin-1-one] | 4.1 | 1.0x | 4.2 | 5.6 | 0.75 | 4.2 |  | 
4 | CO[C@H]1C[C@](c2cccc(N3Cc4c(cc([C@@H](N)C(C)(C)C)cc4C(F)(F)F)C3=O)c2)(c2nncn2C)C1 (single isomer, unassigned) [Compound 361] | 8.1 | 4.4x | 36 | 21 | 4 | 84 |  | 
5 | CCOc1cc(N2Cc3c(cc(CNC4(C)CCC4)cc3C(F)(F)F)C2=O)cc([C@]2(c3nncn3C)C[C@H](OC)C2)c1 [Compound 202, 2-(3-ethoxy-5-((1r,3r)-3-methoxy-1-(4-methyl-4H-1,2,4-triazol-3-yl)cyclobutyl)phenyl)-6-(((1-methylcyclobutyl)amino)methyl)-4-(trifluoromethyl)isoindolin-1-one] | 11 | 1.8x | 21 | 5.2 | 3.3 | 17 |  | 
6 | CO[C@H]1C[C@](c2cccc(N3Cc4c(cc(CNC5(C)CC(F)(F)C5)cc4C(F)(F)F)C3=O)c2)(c2nncn2C)C1 [Compound 471, 6-(((3,3-difluoro-1-methylcyclobutyl)amino)methyl)-2-(3-((1r,3r)-3-methoxy-1-(4-methyl-4H-1,2,4-triazol-3-yl)cyclobutyl)phenyl)-4-(trifluoromethyl)isoindolin-1-one] |  |  | 36 | 11 | 8.3 | 91 | 8.3 | 4.3
7 | Cn1cnnc1[C@]1(c2cccc(N3Cc4c(cc(CNC5(C)CCC5)cc4C(F)(F)F)C3=O)c2)C[C@H](OC(F)F)C1 [Compound 335, 2-(3-((1s,3s)-3-(difluoromethoxy)-1-(4-methyl-4H-1,2,4-triazol-3-yl)cyclobutyl)phenyl)-6-(((1-methylcyclobutyl)amino)methyl)-4-(trifluoromethyl)isoindolin-1-one] | 8.8 | 3.0x | 26 | 17 | 2.6 | 45 |  | 
8 | CO[C@H]1C[C@](c2cccc(N3Cc4c(cc(CN[C@H]5[C@@H]6COC[C@@H]65)cc4C(F)(F)F)C3=O)c2)(c2nncn2C)C1 [Compound 492, 6-(((1R,5S,6r)-3-oxabicyclo[3.1.0]hexan-6-ylamino)methyl)-2-(3-((1r,3R)-3-methoxy-1-(4-methyl-4H-1,2,4-triazol-3-yl)cyclobutyl)phenyl)-4-(trifluoromethyl)isoindolin-1-one] |  |  | 87 | 15 | 12 | 180 | 14 | 6.2
9 | Cn1cnnc1C1(c2cccc(N3Cc4c(cc(CNC5(C)CCC5)cc4C(F)(F)F)C3=O)c2)CC1 [Compound 283, 2-(3-(1-(4-methyl-4H-1,2,4-triazol-3-yl)cyclopropyl)phenyl)-6-(((1-methylcyclobutyl)amino)methyl)-4-(trifluoromethyl)isoindolin-1-one] | 81 | 2.7x | 220 | 5.3 | 43 | 220 |  | 
10 | Cn1cnnc1C1(c2cccc(N3Cc4c(cc(CNC5(C)CCC5)cc4C(F)(F)F)C3=O)c2)CN(S(C)(=O)=O)C1 [Compound 113, 2-(3-(3-(4-methyl-4H-1,2,4-triazol-3-yl)-1-(methylsulfonyl)azetidin-3-yl)phenyl)-6-(((1-methylcyclobutyl)amino)methyl)-4-(trifluoromethyl)isoindolin-1-one] | 3500 | 5.3x | 18000 | 13 | 2700 | 34000 |  | 
11 | Cn1cnnc1[C@]1(c2cccc(N3Cc4c(cc(CNC5(C)CCC5)cc4C(F)(F)F)C3=O)c2)C[C@H](C)C1 [Compound 34, 2-(3-((1s,3s)-3-methyl-1-(4-methyl-4H-1,2,4-triazol-3-yl)cyclobutyl)phenyl)-6-(((1-methylcyclobutyl)amino)methyl)-4-(trifluoromethyl)isoindolin-1-one] | 12 | (0.94x) | 11 | 0.6 | 4 | 2.3 |  | 
12 | COC1CC([C@@H](c2cccc(N3Cc4c(cc(CNC5(C)CCC5)cc4C(F)(F)F)C3=O)c2)c2nncn2C)C1 (single isomer, unassigned) [Compound 134] | 9.8 | 1.8x | 17 | 6.6 | 1.9 | 13 |  | 
13 | Cn1cnnc1[C@]1(c2cccc(N3Cc4c(cc(CNC5(C)CCC5)cc4C(F)(F)F)C3=O)c2)C[C@@H](OC2CC2)C1 [Compound 450, 2-(3-((1r,3r)-3-cyclopropoxy-1-(4-methyl-4H-1,2,4-triazol-3-yl)cyclobutyl)phenyl)-6-(((1-methylcyclobutyl)amino)methyl)-4-(trifluoromethyl)isoindolin-1-one] |  |  | 23 | 7.2 | 2.6 | 19 | 5.8 | 4.0
14 | C[C@H](NC1(C)CCC1)c1cc2c(c(C(F)(F)F)c1)CN(c1cccc(C3(c4nncn4C)CC(F)(F)C3)c1)C2=O (single isomer, unassigned) [Compound 173] | 20 | 2.2x | 45 | 6.3 | 7.9 | 49 |  | 
15 | Cn1cnnc1[C@H](c1cccc(N2Cc3c(cc(CNC4(C)CCC4)cc3C(F)(F)F)C2=O)c1)C1CC(OC(F)F)C1 (single isomer, unassigned) [Compound 389] | 5.1 | 1.7x | 8.9 | 4.4 | 2.9 | 13 |  | 
16 | Cn1cnnc1[C@@](O)(c1cccc(N2Cc3c(cc(CNC4(C)CCC4)cc3C(F)(F)F)C2=O)c1)C1COC1 (single isomer, unassigned) [Compound 143] | 62 | 3.1x | 190 | 4.3 | 58 | 220 |  | 
17 | Cc1cnnn1[C@@H](c1cccc(N2Cc3c(cc(CNC4(C)CCC4)cc3C(F)(F)F)C2=O)c1)C1COC1 (single isomer, unassigned) [Compound 135] | 37 | 1.9x | 69 | 4.9 | 13 | 63 |  | 
18 | C[C@H](NC1(C)CCC1)c1cc2c(c(C(F)F)c1)CN(c1cccc([C@H](c3nncn3C)C3COC3)c1)C2=O (single isomer, unassigned) [Compound 413] |  |  | 7.1 | 5.3 | 0.3 | 1.6 | 4.5 | 1.6
19 | CO[C@H]1C[C@](c2cc(NC3COC3)cc(N3Cc4c(cc(CNC5(C)CCC5)cc4C(F)(F)F)C3=O)c2)(c2nncn2C)C1 [Compound 234, 2-(3-((1r,3r)-3-methoxy-1-(4-methyl-4H-1,2,4-triazol-3-yl)cyclobutyl)-5-(oxetan-3-ylamino)phenyl)-6-(((1-methylcyclobutyl)amino)methyl)-4-(trifluoromethyl)isoindolin-1-one] | 25 | 5.6x | 140 | 10 | 7.4 | 76 |  | 
